# Source: PubChem BioAssay AID330 (DTP/NCI, 2004)
# Values joined by “and” are separate entries in the source; they are usually repeats but may differ in a detail not shown here. Identical values can stand only once. Inconclusive results and toxic doses are left out.
# Tested on: P388 leukemia ip, CD2F1 mice, survival T/C
# Assay: NCI In Vivo Anticancer Drug Screen. Data for tumor model P388 Leukemia (intraperitoneal) in CD2F1 (CDF1) mice
# Conditions: endpoint: median survival time, higher = longer survival
# Summary of the method: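 Mice carrying the transplanted tumor received test compound or vehicle. Survival was recorded in each group, and the value is the treated-group measurement divided by that of the vehicle-treated control group.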
# [1] = dose: 50.0 mg/kg/injection, schedule: Q01DX005 (ip), vehicle: Klucel (hydroxypropylcellulose) (HPC)
# [2] = dose: 100.0 mg/kg/injection, schedule: Q01DX005 (ip), vehicle: Klucel (hydroxypropylcellulose) (HPC)
# [3] = dose: 200.0 mg/kg/injection, schedule: Q01DX005 (ip), vehicle: Klucel (hydroxypropylcellulose) (HPC)
# [4] = dose: 100.0 mg/kg/injection, schedule: Q04DX003 (ip), vehicle: saline with Tween-80
# [5] = dose: 200.0 mg/kg/injection, schedule: Q04DX003 (ip), vehicle: saline with Tween-80
# [6] = dose: 400.0 mg/kg/injection, schedule: Q04DX003 (ip), vehicle: saline with Tween-80
# [7] = dose: 50.0 mg/kg/injection, schedule: Q01DX005 (ip), vehicle: saline with Tween-80
# [8] = dose: 100.0 mg/kg/injection, schedule: Q01DX005 (ip), vehicle: saline with Tween-80
# [9] = dose: 200.0 mg/kg/injection, schedule: Q01DX005 (ip), vehicle: saline with Tween-80
smiles,measurement,setting,value
CC1C=CCC2C(=O)c3cccc([N+](=O)[O-])c3C(=O)C12 (stereo unspecified),T/C,[1],100 % of control
same,T/C,[2],96 % of control
same,T/C,[3],92 % of control
COc1ccc(/C(O)=C/c2nc3ccc(Cl)cc3[nH]c2=O)cc1,T/C,"dose: 60.0 mg/kg/injection, schedule: Q01DX005 (ip), vehicle: Klucel (hydroxypropylcellulose) (HPC)",101 % of control
same,T/C,"dose: 120.0 mg/kg/injection, schedule: Q01DX005 (ip), vehicle: Klucel (hydroxypropylcellulose) (HPC)",99 % of control
same,T/C,"dose: 240.0 mg/kg/injection, schedule: Q01DX005 (ip), vehicle: Klucel (hydroxypropylcellulose) (HPC)",91 % of control
O=C(CCC1(CCC(=O)c2ccccc2)c2ccccc2C(=O)c2ccccc21)c1ccccc1,T/C,"dose: 25.0 mg/kg/injection, schedule: Q04DX003 (ip), vehicle: Klucel (hydroxypropylcellulose) (HPC)",93 % of control
same,T/C,"dose: 50.0 mg/kg/injection, schedule: Q04DX003 (ip), vehicle: Klucel (hydroxypropylcellulose) (HPC)",108 % of control
same,T/C,"dose: 100.0 mg/kg/injection, schedule: Q04DX003 (ip), vehicle: Klucel (hydroxypropylcellulose) (HPC)",86 % of control
same,T/C,"dose: 200.0 mg/kg/injection, schedule: Q04DX003 (ip), vehicle: Klucel (hydroxypropylcellulose) (HPC)",91 % of control
Cc1cc(=O)oc2cc(OC(=O)N(C)C)ccc12,T/C,"dose: 100.0 mg/kg/injection, schedule: Q04DX003 (ip), vehicle: saline",115 % of control
same,T/C,"dose: 200.0 mg/kg/injection, schedule: Q04DX003 (ip), vehicle: saline",112 % of control
same,T/C,"dose: 400.0 mg/kg/injection, schedule: Q04DX003 (ip), vehicle: saline",97 % of control
Cc1nn(CCO)c(-c2ccccc2)c1-n1on1-c1c(C)nn(CCO)c1-c1ccccc1,T/C,"dose: 25.0 mg/kg/injection, schedule: Q01DX009 (ip), vehicle: saline",97 % of control
same,T/C,"dose: 50.0 mg/kg/injection, schedule: Q01DX009 (ip), vehicle: saline",98 % of control
same,T/C,"dose: 100.0 mg/kg/injection, schedule: Q01DX009 (ip), vehicle: saline",98 % of control
CC(C)=NNc1nc(N(C)C)nc(N(C)C)n1,T/C,[4],105 % of control
same,T/C,[5],105 % of control
same,T/C,[6],103 % of control
O=c1[nH]c2c(=O)[nH][nH]c(=O)c2[nH]c1=O,T/C,"dose: 15.0 mg/kg/injection, schedule: Q01DX005 (ip), vehicle: saline with Tween-80",103 % of control
same,T/C,"dose: 30.0 mg/kg/injection, schedule: Q01DX005 (ip), vehicle: saline with Tween-80",100 % of control
same,T/C,"dose: 60.0 mg/kg/injection, schedule: Q01DX005 (ip), vehicle: saline with Tween-80",99 % of control and 105 % of control
COC(=O)CC(C(=O)CSC(S(=O)(=O)c1ccccc1)S(=O)(=O)c1ccccc1)C(=O)OC (stereo unspecified),T/C,[1],99 % of control
same,T/C,[2],101 % of control
same,T/C,[3],100 % of control
COc1cc(O)c2c(c1)C(O)C(O)CC1OC1C(=O)/C=C/CC(C)OC2=O (stereo unspecified),T/C,"dose: 1.56 mg/kg/injection, schedule: Q01DX005 (ip), vehicle: saline with Tween-80",115 % of control
same,T/C,"dose: 3.12 mg/kg/injection, schedule: Q01DX005 (ip), vehicle: saline with Tween-80",107 % of control
same,T/C,"dose: 6.25 mg/kg/injection, schedule: Q01DX005 (ip), vehicle: saline with Tween-80",107 % of control
same,T/C,"dose: 12.5 mg/kg/injection, schedule: Q01DX005 (ip), vehicle: saline with Tween-80",114 % of control
O=C1c2ccccc2C2CNC1(O)c1ccccc12 (stereo unspecified),T/C,[7],97 % of control
same,T/C,[8],97 % of control
same,T/C,[9],102 % of control
COC(=O)CCC1=C(C)c2cc3[n-]c(cc4nc(cc5[n-]c(cc1n2)c(CCC(=O)OC)c5C)C(C(C)=O)=C4C)c(C(C)=O)c3C.[Cl-].[Fe+3],T/C,[1],104 % of control
same,T/C,[2],106 % of control
same,T/C,[3],99 % of control
COc1ccc(C[C@H](N)C(=O)NC2C(CO)OC(n3cnc4c(N(C)C)ncnc43)C2O)cc1 (stereo partly specified),T/C,"dose: 4.0 mg/kg/injection, schedule: Q03HX024 (ip), vehicle: saline",115 % of control
same,T/C,"dose: 8.0 mg/kg/injection, schedule: Q01DX005 (ip), vehicle: saline",112 % of control
same,T/C,"dose: 8.0 mg/kg/injection, schedule: Q01DX009 (ip), vehicle: saline",107 % of control
same,T/C,"dose: 16.0 mg/kg/injection, schedule: Q01DX005 (ip), vehicle: saline",106 % of control
same,T/C,"dose: 16.0 mg/kg/injection, schedule: Q01DX009 (ip), vehicle: saline",100 % of control
same,T/C,"dose: 16.0 mg/kg/injection, schedule: Q03HX024 (ip), vehicle: saline",92 % of control
same,T/C,"dose: 20.0 mg/kg/injection, schedule: Q01DX009 (ip), vehicle: water",92 % of control
same,T/C,"dose: 22.0 mg/kg/injection, schedule: Q01DX009 (ip), vehicle: saline with Tween-80",120 % of control
same,T/C,"dose: 32.0 mg/kg/injection, schedule: Q01DX005 (ip), vehicle: saline",106 % of control
same,T/C,"dose: 32.0 mg/kg/injection, schedule: Q01DX009 (ip), vehicle: saline",109 % of control
same,T/C,"dose: 32.0 mg/kg/injection, schedule: Q04DX003 (ip), vehicle: saline",107 % of control
same,T/C,"dose: 33.0 mg/kg/injection, schedule: Q01DX009 (ip), vehicle: saline with Tween-80",122 % of control
same,T/C,"dose: 40.0 mg/kg/injection, schedule: Q01DX009 (ip), vehicle: water",92 % of control
same,T/C,"dose: 60.0 mg/kg/injection, schedule: Q01DX009 (ip), vehicle: water",90 % of control
same,T/C,"dose: 64.0 mg/kg/injection, schedule: Q01DX001 (ip), vehicle: saline",101 % of control and 92 % of control
same,T/C,"dose: 64.0 mg/kg/injection, schedule: Q01DX005 (ip), vehicle: saline",114 % of control
same,T/C,"dose: 64.0 mg/kg/injection, schedule: Q01DX009 (ip), vehicle: saline",109 % of control
same,T/C,"dose: 64.0 mg/kg/injection, schedule: Q04DX003 (ip), vehicle: saline",111 % of control
same,T/C,"dose: 80.0 mg/kg/injection, schedule: Q01DX009 (ip), vehicle: water",92 % of control
same,T/C,"dose: 100.0 mg/kg/injection, schedule: Q01DX009 (ip), vehicle: water",95 % of control
same,T/C,[4],104 % of control
same,T/C,"dose: 128.0 mg/kg/injection, schedule: Q01DX001 (ip), vehicle: saline",118 % of control and 97 % of control
same,T/C,"dose: 128.0 mg/kg/injection, schedule: Q01DX005 (ip), vehicle: saline",124 % of control
same,T/C,"dose: 128.0 mg/kg/injection, schedule: Q01DX009 (ip), vehicle: saline",118 % of control
same,T/C,"dose: 128.0 mg/kg/injection, schedule: Q04DX003 (ip), vehicle: saline",100 % of control
same,T/C,"dose: 150.0 mg/kg/injection, schedule: Q01DX009 (ip), vehicle: saline sonified",150 % of control
same,T/C,[5],95 % of control
same,T/C,"dose: 256.0 mg/kg/injection, schedule: Q01DX001 (ip), vehicle: saline",111 % of control
same,T/C,"dose: 256.0 mg/kg/injection, schedule: Q04DX003 (ip), vehicle: saline",90 % of control
same,T/C,[6],95 % of control
NNC(=O)CCn1[nH]c(=O)c(Cl)c(Cl)c1=O,T/C,[7],100 % of control
same,T/C,[8],100 % of control
same,T/C,[9],100 % of control
C=CC(C)(C)c1c(OC)oc(-c2ccccc2)cc1=O,T/C,"dose: 5.0 mg/kg/injection, schedule: Q01DX005 (ip), vehicle: saline + Tween-80 + alcohol",106 % of control
same,T/C,"dose: 10.0 mg/kg/injection, schedule: Q01DX005 (ip), vehicle: saline + Tween-80 + alcohol",111 % of control
same,T/C,"dose: 20.0 mg/kg/injection, schedule: Q01DX005 (ip), vehicle: saline + Tween-80 + alcohol",106 % of control
same,T/C,"dose: 40.0 mg/kg/injection, schedule: Q01DX005 (ip), vehicle: saline + Tween-80 + alcohol",110 % of control
CSc1nc(N)nc2nc[nH]c12,T/C,[4],104 % of control
same,T/C,[5],122 % of control
CC12CC3(C)C(Br)C3CC1O2 (stereo unspecified),T/C,"dose: 44.5 mg/kg/injection, schedule: Q01DX005 (ip), vehicle: saline with Tween-80",97 % of control
same,T/C,"dose: 89.0 mg/kg/injection, schedule: Q01DX005 (ip), vehicle: saline with Tween-80",99 % of control
same,T/C,"dose: 178.0 mg/kg/injection, schedule: Q01DX005 (ip), vehicle: saline with Tween-80",99 % of control
